Like-named read-outs stand apart in the source and are kept apart here. Each block holds one compound with its values, some of them ahead of it.
Experiments:
human β2‐adrenoceptor = human β2‐adrenoceptor (Homo sapiens, UniProt P07550); assay type: binding; details: for Kd / Log KD β2: mean ± s.e.mean; for Kd: read-out: Log KD β2 (converted); for IC50 / IC50 (log) β2, IC50>top concentration used: ^3H‐CGP12177, log value; for IC50: read-out: IC50 (log) β2, IC50>top concentration used (converted)
human α2A‐adrenoceptor [1] = target: T1, human α2A‐adrenoceptor (Homo sapiens, UniProt P08913); experiment: cell-based
T1 sequence (P08913 1-465): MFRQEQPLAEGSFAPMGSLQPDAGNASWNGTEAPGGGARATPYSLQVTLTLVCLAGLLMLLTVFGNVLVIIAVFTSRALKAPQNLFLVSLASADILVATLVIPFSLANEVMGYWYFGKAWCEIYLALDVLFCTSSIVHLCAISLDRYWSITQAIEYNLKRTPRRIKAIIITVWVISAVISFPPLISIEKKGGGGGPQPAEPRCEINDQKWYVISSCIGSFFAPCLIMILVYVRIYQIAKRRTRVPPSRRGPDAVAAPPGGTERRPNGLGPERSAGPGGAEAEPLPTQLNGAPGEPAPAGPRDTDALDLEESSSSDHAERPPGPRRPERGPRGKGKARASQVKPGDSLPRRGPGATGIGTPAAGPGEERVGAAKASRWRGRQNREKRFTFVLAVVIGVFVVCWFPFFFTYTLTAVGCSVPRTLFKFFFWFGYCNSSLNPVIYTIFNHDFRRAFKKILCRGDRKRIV

human α2B‐adrenoceptor [2] = target: T2, human α2B‐adrenoceptor (Homo sapiens, UniProt P18089); experiment: ^3H‐rauwolscine whole cell competition binding, CHO‐α2B cells; details: for IC50 (log) α2B, IC50>top concentration used: ^3H‐rauwolscine, top concentration inhibited 50% or less of specific binding, log value; for Selectivity ratio α2A vs α2B (higher affinity for α2B) / Selectivity ratio α2B vs α2C (higher affinity for α2B): ratio of KD values
T2 sequence (P18089 1-450): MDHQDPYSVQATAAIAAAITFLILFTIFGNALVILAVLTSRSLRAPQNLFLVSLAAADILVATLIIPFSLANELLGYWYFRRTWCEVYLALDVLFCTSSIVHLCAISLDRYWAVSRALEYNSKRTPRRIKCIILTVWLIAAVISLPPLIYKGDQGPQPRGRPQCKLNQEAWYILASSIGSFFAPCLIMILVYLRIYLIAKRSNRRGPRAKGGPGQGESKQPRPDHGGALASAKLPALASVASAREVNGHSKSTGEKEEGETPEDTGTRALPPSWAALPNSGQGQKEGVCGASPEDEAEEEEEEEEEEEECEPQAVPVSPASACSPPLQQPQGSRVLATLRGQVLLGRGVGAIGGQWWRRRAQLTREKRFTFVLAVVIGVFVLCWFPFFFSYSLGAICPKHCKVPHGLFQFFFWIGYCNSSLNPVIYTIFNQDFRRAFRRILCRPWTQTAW

human α2A‐adrenoceptor [3] = target: T1, human α2A‐adrenoceptor; experiment: ^3H‐rauwolscine whole cell competition binding, CHO‐α2A cells; details: for Selectivity ratio α2A vs α2B (higher affinity for α2A): ratio of KD values
human β1‐adrenoceptor [4] = target: T3, human β1‐adrenoceptor (Homo sapiens, UniProt P08588); experiment: cell-based
human α2C‐adrenoceptor [5] = target: T4, human α2C‐adrenoceptor (Homo sapiens, UniProt P18825); experiment: ^3H‐rauwolscine whole cell competition binding, CHO‐α2C cells; details: for Selectivity ratio α2A vs α2C (higher affinity for α2C) / Selectivity ratio α2B vs α2C (higher affinity for α2C): ratio of KD values
T4 sequence (P18825 1-462): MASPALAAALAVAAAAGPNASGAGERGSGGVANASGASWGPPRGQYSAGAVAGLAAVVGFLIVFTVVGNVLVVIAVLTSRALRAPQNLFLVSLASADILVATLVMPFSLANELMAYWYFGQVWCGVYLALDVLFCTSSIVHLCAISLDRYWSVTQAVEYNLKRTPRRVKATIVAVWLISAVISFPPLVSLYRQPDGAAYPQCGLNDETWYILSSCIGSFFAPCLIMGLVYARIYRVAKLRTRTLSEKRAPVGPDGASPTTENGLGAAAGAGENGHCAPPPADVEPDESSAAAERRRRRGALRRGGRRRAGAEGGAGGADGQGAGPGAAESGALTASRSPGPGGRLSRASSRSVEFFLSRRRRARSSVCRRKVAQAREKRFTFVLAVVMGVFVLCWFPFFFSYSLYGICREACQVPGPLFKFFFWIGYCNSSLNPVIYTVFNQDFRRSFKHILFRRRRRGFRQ

human α2C‐adrenoceptor [6] = target: T4, human α2C‐adrenoceptor; experiment: cell-based
human α2B‐adrenoceptor [7] = target: T2, human α2B‐adrenoceptor; experiment: cell-based
human α2C‐adrenoceptor [8] = target: T4, human α2C‐adrenoceptor
human β1‐adrenoceptor [9] = target: T3, human β1‐adrenoceptor; details: for Log KD β1: mean ± s.e.mean
human α2A‐adrenoceptor [10] = target: T1, human α2A‐adrenoceptor
[11] = ^3H‐CGP12177 whole cell binding, log values, ^app = apparent KD, 'no binding to' = log top concentration
[12] = given as log KD (negative values), 3H-CGP12177 whole cell binding, CHO cells

T3 sequence (P08588 whole entry): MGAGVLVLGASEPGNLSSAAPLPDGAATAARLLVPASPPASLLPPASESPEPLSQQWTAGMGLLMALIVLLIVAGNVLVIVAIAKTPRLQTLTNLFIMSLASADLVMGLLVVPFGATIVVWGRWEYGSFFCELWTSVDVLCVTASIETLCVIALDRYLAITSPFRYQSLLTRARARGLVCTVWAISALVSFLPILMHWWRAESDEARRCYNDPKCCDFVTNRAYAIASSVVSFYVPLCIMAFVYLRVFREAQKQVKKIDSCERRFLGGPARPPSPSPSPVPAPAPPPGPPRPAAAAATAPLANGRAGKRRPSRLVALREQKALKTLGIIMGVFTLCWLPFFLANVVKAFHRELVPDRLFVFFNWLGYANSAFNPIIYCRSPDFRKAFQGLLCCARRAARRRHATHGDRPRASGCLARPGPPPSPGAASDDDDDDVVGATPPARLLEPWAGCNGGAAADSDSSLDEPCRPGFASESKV
human β2‐adrenoceptor, sequence (P07550 whole entry): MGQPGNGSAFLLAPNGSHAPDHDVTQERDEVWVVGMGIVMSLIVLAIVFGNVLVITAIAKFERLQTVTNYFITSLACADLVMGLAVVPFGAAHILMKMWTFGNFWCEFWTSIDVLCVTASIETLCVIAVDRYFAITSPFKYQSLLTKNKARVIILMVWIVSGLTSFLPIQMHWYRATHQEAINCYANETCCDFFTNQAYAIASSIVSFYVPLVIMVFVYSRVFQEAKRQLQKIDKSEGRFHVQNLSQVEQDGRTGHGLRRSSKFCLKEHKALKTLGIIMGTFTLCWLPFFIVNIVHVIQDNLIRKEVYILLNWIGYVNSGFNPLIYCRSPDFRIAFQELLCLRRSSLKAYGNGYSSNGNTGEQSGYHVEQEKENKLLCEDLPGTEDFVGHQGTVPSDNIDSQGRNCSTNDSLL

Kd (human α2A‐adrenoceptor [1]): 2.14 µM
Kd (human α2C‐adrenoceptor [6]): 0.427 µM
Kd (human α2B‐adrenoceptor [7]): 0.603 µM
Compound: CC(CN(C)C)CN1c2ccccc2CCc2ccccc21 (stereo not shown) [trimipramine]

IC50 (human β2‐adrenoceptor): > 31.6 µM
Kd (human α2A‐adrenoceptor [1]): 0.107 µM
IC50 (human β1‐adrenoceptor [4]): > 31.6 µM
Kd (human α2C‐adrenoceptor [6]): 0.00182 µM
Compound: O=C1NCN(c2ccccc2)C12CCN(CC1COc3ccccc3O1)CC2 (stereo not shown) [spiroxatrine]

IC50 (human α2B‐adrenoceptor [2]): > 100 µM
IC50 (human α2A‐adrenoceptor [3]): > 100 µM
Kd (human α2C‐adrenoceptor [6]): 6.76 µM
Compound: Cn1cc(C(F)(F)F)nc1-c1ccc(OCC(O)CNCCOc2ccc(O)c(C(N)=O)c2)cc1 (stereo not shown) [CGP20712A]

IC50 (human β2‐adrenoceptor): > 1000 µM
Kd (human α2A‐adrenoceptor [1]): 31.6 µM
IC50 (human β1‐adrenoceptor [4]): > 1000 µM
Compound: CCN1CCCC1CNC(=O)c1cc(S(N)(=O)=O)ccc1OC (stereo not shown) [sulpiride]

Kd (human α2C‐adrenoceptor [8]): 0.0977 µM
IC50 (log) β2, IC50>top concentration used (human β2‐adrenoceptor): IC50>−4
Log KD β1 (human β1‐adrenoceptor [9]; [11]): No binding to −4
Log KD β1 (human β1‐adrenoceptor [9]; [12]): No binding to -4
Kd (human α2A‐adrenoceptor [10]): 0.214 µM
IC50 (log) α2B, IC50>top concentration used (human α2B‐adrenoceptor [2]): IC50>−4
Selectivity ratio α2A vs α2C (higher affinity for α2C) (human α2C‐adrenoceptor [5]): 2.2
Compound: COc1ccccc1N1CCN(CCn2c(=O)[nH]c3c([nH]c4ccccc43)c2=O)CC1 [3‐MPPI]

IC50 (human β2‐adrenoceptor): > 100 µM
Kd (human α2A‐adrenoceptor [1]): 5.62 µM
Kd (human α2B‐adrenoceptor [2]): 0.437 µM
Selectivity ratio α2A vs α2B (higher affinity for α2B) (human α2B‐adrenoceptor [2]): 12.9
Selectivity ratio α2B vs α2C (higher affinity for α2B) (human α2B‐adrenoceptor [2]): 3.0
IC50 (human β1‐adrenoceptor [4]): > 100 µM
Kd (human α2C‐adrenoceptor [6]): 1.29 µM
Selectivity ratio α2A vs α2C (higher affinity for α2C) (human α2C‐adrenoceptor [5]): 4.4
Compound: CN(C)CCCN1c2ccccc2CCc2ccccc21 [imipramine]

Kd (human α2C‐adrenoceptor [8]): 13.8 µM
Log KD β2 (human β2‐adrenoceptor; [11]): −6.36 ± 0.07
Log KD β1 (human β1‐adrenoceptor [9]; [11]): −6.23 ± 0.07
Kd (human α2A‐adrenoceptor [10]): 20 µM
IC50 (log) α2B, IC50>top concentration used (human α2B‐adrenoceptor [2]): IC50>−4
Selectivity ratio α2A vs α2C (higher affinity for α2C) (human α2C‐adrenoceptor [5]): 1.4
Compound: N=C(CC(O)COc1ccccc1-c1ccccc1)N1CCCCC1 (stereo not shown) [AH11110A]

Continued, compound first:

Compound: CCOc1ccccc1OCCN[C@H](C)Cc1ccc(OC)c(S(N)(=O)=O)c1 [tamsulosin]
Kd (human β2‐adrenoceptor; [11]): 0.832 µM
Kd (human α2A‐adrenoceptor [1]): 0.468 µM
Kd (human α2B‐adrenoceptor [2]): 4.9 µM
Selectivity ratio α2A vs α2B (higher affinity for α2A) (human α2A‐adrenoceptor [3]): 10.5
Kd (human β1‐adrenoceptor [4]): 0.55 µM
Kd (human α2C‐adrenoceptor [5]): 0.389 µM
Selectivity ratio α2A vs α2C (higher affinity for α2C) (human α2C‐adrenoceptor [5]): 1.2
Selectivity ratio α2B vs α2C (higher affinity for α2C) (human α2C‐adrenoceptor [5]): 12.6

Compound: O=C1[C@@H]2[C@H]3CC[C@H](C3)[C@@H]2C(=O)N1C[C@@H]1CCCC[C@H]1CN1CCN(c2nsc3ccccc23)CC1 [lurasidone]
IC50 (human β2‐adrenoceptor): > 10 µM
Kd (human α2B‐adrenoceptor [2]): 0.0437 µM
Kd (human α2C‐adrenoceptor [6]): 0.0457 µM

Compound: COc1cc2nc(N3CCN(C(=O)COc4c(OC)cccc4C(C)C)CC3)nc(N)c2cc1OC [Rec15‐2615]
Kd (human α2C‐adrenoceptor [8]): 0.275 µM
IC50 (log) β2, IC50>top concentration used (human β2‐adrenoceptor): IC50>−4
IC50 (log) β1, IC50>top concentration used (human β1‐adrenoceptor [9]; ^3H‐CGP12177, log value): IC50>−4
Kd (human α2A‐adrenoceptor [10]): 2.95 µM
IC50 (log) α2B, IC50>top concentration used (human α2B‐adrenoceptor [2]): IC50>−4.5
Selectivity ratio α2A vs α2C (higher affinity for α2C) (human α2C‐adrenoceptor [5]): 10.7

Compound: COc1cc2nc(N(C)CCCNC(=O)C3CCCO3)nc(N)c2cc1OC (stereo not shown) [alfuzosin]
Kd (human β2‐adrenoceptor; [11]): 66.1 µM
Kd (human α2A‐adrenoceptor [1]): 2.75 µM
Log KD β1 (human β1‐adrenoceptor [9]; [11]): No binding
Log KD β1 (human β1‐adrenoceptor [9]; [12]): No binding to -4
Kd (human α2B‐adrenoceptor [2]): 24 µM
Selectivity ratio α2A vs α2B (higher affinity for α2A) (human α2A‐adrenoceptor [3]): 8.7
Kd (human α2C‐adrenoceptor [6]): 0.724 µM
Selectivity ratio α2A vs α2C (higher affinity for α2C) (human α2C‐adrenoceptor [5]): 3.8
Selectivity ratio α2B vs α2C (higher affinity for α2C) (human α2C‐adrenoceptor [5]): 33.1

Compound: COc1cc2nc(N3CCN(C(=O)C4CCCO4)CC3)nc(N)c2cc1OC (stereo not shown) [terazosin]
Log KD β2 (human β2‐adrenoceptor; [11]): No binding to −4
Log KD β2 (human β2‐adrenoceptor; [12]): No binding to -4
Kd (human α2A‐adrenoceptor [1]): 6.61 µM
Log KD β1 (human β1‐adrenoceptor [9]; [11]): No binding to −4
Log KD β1 (human β1‐adrenoceptor [9]; [12]): No binding to -4

Compound: COc1ccc(C(CN(C)C)C2(O)CCCCC2)cc1 (stereo not shown) [venlafaxime]
Kd (human α2C‐adrenoceptor [8]): 182 µM
Log KD β2 (human β2‐adrenoceptor; [11]): −4.13 ± 0.13^app
Log KD β1 (human β1‐adrenoceptor [9]; [11]): −3.80 ± 0.11^app
Kd (human α2A‐adrenoceptor [10]): 346.7 ± 3.01 µM

Compound: ClCCN(Cc1ccccc1)Cc1ccccc1 [dibenamine]
Kd (human α2C‐adrenoceptor [8]): 0.661 µM
Log KD β2 (human β2‐adrenoceptor; [11]): −4.94 ± 0.10^app
Log KD β1 (human β1‐adrenoceptor [9]; [11]): −4.60 ± 0.06^app
Kd (human α2A‐adrenoceptor [10]): 1.58 µM
% site 1, α2B (human α2B‐adrenoceptor [2]; proportion of site 1 in two-site fit): 60.9 ± 3.4%
Selectivity ratio α2A vs α2B (higher affinity for α2B) (human α2B‐adrenoceptor [2]): 4.3
Selectivity ratio α2B vs α2C (higher affinity for α2B) (human α2B‐adrenoceptor [2]): 1.8
% site 1, α2B (human α2B‐adrenoceptor [2]; two-component inhibition, proportion of higher affinity site): 60.9 ± 3.4%
% site 1 α2B (percentage through first component) (human α2B‐adrenoceptor [2]; two‐component inhibition of ^3H‐rauwolscine binding): 60.9 ± 3.4%
Selectivity ratio α2A vs α2C (higher affinity for α2C) (human α2C‐adrenoceptor [5]): 2.4
